Measurements reported in patent US20060111305A1, “Metabolites of certain [1,4]diazepino[6,7,1-ij]quinoline derivatives and methods of preparation and use thereof” (Wyeth, priority 2004, published 2006).
Values joined by “and” are separate entries in the source; they are usually repeats but may differ in a detail not shown here. Identical values can stand only once.

Experiments:
[1] = Dog blood and plasma radioactivity concentrations after single 15 mg/kg oral enteric-coated capsule of [14C]DCDQ; assay type: in vivo, beagle dogs; details: 15 mg/kg oral capsule; for Blood concentration of radioactivity, individual dogs 1-4 / Plasma concentration of radioactivity, individual dogs 1-4: 15 mg/kg
Experimental: About 11 mg of [^14C]DCDQ hydrochloride and 940 mg of non-labeled DCDQ hydrochloride were dissolved in methanol and then evaporated under a nitrogen stream to dryness. Capsules (#2) were filled with accurate amounts (126.7-138.1 mg) of the mixed drug substance according to animal weights. The filled gelatin capsules were then enteric-coated manually. Four male beagle dogs, weighing from 7.6 to 9.8 kg at the time of dosing, were from an in-house colony. Each dog was given one enteric-coated capsule containing [^14C]DCDQ as the hydrochloride salt. Animals were fed two hours prior to dosing and provided Purina dog chow and water ad libitum, and were housed individually in metabolic cages. Blood samples were collected from the jugular vein at 2, 4, 8, 24 and 48 hour after dose administration into tubes containing potassium EDTA as the anticoagulant and then placed on ice. Aliquots of 50 μL were removed for combustion and determination of radioactivity content. Plasma was immediately obtained from the remaining blood by centrifugation at 4° C. Urine samples were collected into tubes on dry ice at intervals of 0-8, 8-24 and 24-48 hour post-dose. Fecal samples were collected at intervals of 0-8, 8-24 and 24-48 hour post-dose at room temperature, and were homogenized. The biological specimens were stored at approximately −70° C. until analysis. Aliquots of 50 μL of plasma and 100-200 μL of urine were analyzed for radioactivity concentrations. Radioactivity determinations of dose, plasma, and urine were made with a Tri-Carb Model 3100 TR/LL LSC using 5-10 mL of Ultima Gold as the scintillation fluid. Feces were weighed and homogenized in water at a volume-to-weight ratio of about 5:1. Aliquots of blood (200 μL) and fecal homogenates (0.25-0.53 gram) were placed on Combusto-cones with Combusto-pads and combusted. A model 307 Tri-Carb sample oxidizer, equipped with an Oximate-80 robotic automatic sampler (Perkin Elmer), was used for combustion of blood and fecal samples. The liberated ^14CO2 was trapped with Carbo-Sorb E carbon dioxide absorber, mixed with PermaFluor® E+ liquid scintillation cocktail, and counted on a Tri-Carb Model 3100 TR/LL liquid scintillation counter (Perkin Elmer). The efficiency of combustion was 98.9%.

[2] = dog, enteric-coated capsule, mass balance study; cited from earlier work
[3] = rats, previous mass balance study, oral dose; cited from earlier work
[4] = Incubation of [14C]DCDQ in dog fecal homogenate (stability); assay type: in vitro ADME; details: 37° C. for 24 hours
Experimental: An average of 70.2% of the fecal radioactivity was extracted, while an average of 88.2% of the radioactivity was extracted from incubations of [^14C]DCDQ in blank fecal homogenate. In fecal extracts, DCDQ was major radioactive component, representing 54.4% to 96.7% of the total radioactivity. The metabolites detected in feces included hydroxy DCDQ (M2, M3 and M19), a keto DCDQ ([…]) and an uncharacterized peak (M20). The most abundant metabolite […] represented up to 16.4% of the total radioactivity in fecal extracts. The glucuronide of hydroxy DCDQ (M9) and the carbamoyl glucuronide of DCDQ (M6) were not detected in feces.

c1cc2c3c(c1)[C@H]1CCC[C@H]1CN3CCNC2 [[^14C]DCDQ]
Blood concentration of radioactivity, Mean ± SD ([1]; 2 hr): 262 ± 391 ng equivalents/mL
Plasma concentration of radioactivity, Mean ± SD ([1]; 2 hr): 422 ± 573 ng equivalents/mL
Blood concentration of radioactivity, individual dogs 1-4 ([1]; 2 hr): 161 ng equivalents/mL and 840 ng equivalents/mL and 48.6 ng equivalents/mL and 0.00 ng equivalents/mL
Plasma concentration of radioactivity, individual dogs 1-4 ([1]; 2 hr): 360 ng equivalents/mL and 1250 ng equivalents/mL and 74.4 ng equivalents/mL and 4.13 ng equivalents/mL
Blood concentration of radioactivity, Mean ± SD ([1]; 4 hr): 372 ± 505 ng equivalents/mL
Plasma concentration of radioactivity, Mean ± SD ([1]; 4 hr): 564 ± 748 ng equivalents/mL
Blood concentration of radioactivity, individual dogs 1-4 ([1]; 4 hr): 319 ng equivalents/mL and 1100 ng equivalents/mL and 66.7 ng equivalents/mL and 0.90 ng equivalents/mL
Plasma concentration of radioactivity, individual dogs 1-4 ([1]; 4 hr): 500 ng equivalents/mL and 1640 ng equivalents/mL and 112 ng equivalents/mL and 4.13 ng equivalents/mL
Blood concentration of radioactivity, Mean ± SD ([1]; 8 hr): 347 ± 378 ng equivalents/mL
Plasma concentration of radioactivity, Mean ± SD ([1]; 8 hr): 528 ± 566 ng equivalents/mL
Blood concentration of radioactivity, individual dogs 1-4 ([1]; 8 hr): 331 ng equivalents/mL and 878 ng equivalents/mL and 176 ng equivalents/mL and 5.41 ng equivalents/mL
Plasma concentration of radioactivity, individual dogs 1-4 ([1]; 8 hr): 541 ng equivalents/mL and 1310 ng equivalents/mL and 256 ng equivalents/mL and 4.13 ng equivalents/mL
Blood concentration of radioactivity, Mean ± SD ([1]; 24 hr): 920 ± 341 ng equivalents/mL
Plasma concentration of radioactivity, Mean ± SD ([1]; 24 hr): 1340 ± 508 ng equivalents/mL
Blood concentration of radioactivity, individual dogs 1-4 ([1]; 24 hr): 980 ng equivalents/mL and 782 ng equivalents/mL and 1360 ng equivalents/mL and 556 ng equivalents/mL
Plasma concentration of radioactivity, individual dogs 1-4 ([1]; 24 hr): 1530 ng equivalents/mL and 1110 ng equivalents/mL and 1940 ng equivalents/mL and 769 ng equivalents/mL
Blood concentration of radioactivity, Mean ± SD ([1]; 48 hr): 343 ± 79.9 ng equivalents/mL
Plasma concentration of radioactivity, Mean ± SD ([1]; 48 hr): 507 ± 135 ng equivalents/mL
Blood concentration of radioactivity, individual dogs 1-4 ([1]; 48 hr): 333 ng equivalents/mL and 434 ng equivalents/mL and 364 ng equivalents/mL and 241 ng equivalents/mL
Plasma concentration of radioactivity, individual dogs 1-4 ([1]; 48 hr): 504 ng equivalents/mL and 669 ng equivalents/mL and 517 ng equivalents/mL and 339 ng equivalents/mL
dose recovered in urine [2]: 32.7%
dosed radioactivity recovered in urine [3]: 64.3%
degradation in fecal homogenate [4]: no obvious degradation
